Key:
[1] = Lipophilicity, logP of the compound; assay type: physicochemical; conditions: octanol/water
[2] = test system: Mus musculus; experiment: Anesthetic activity in mouse assessed as concentration required to induce hypnotic effect; assay type: functional, organism-based
[3] = Toxicity in mouse assessed as lethal dose; conditions: in vivo
[4] = Therapeutic index, ratio of LD50 for toxicity in mouse to HD50 for anesthetic activity in mouse; assay type: organism-based; conditions: in vivo, read-out: TI
[5] = target: GABA-A receptor; anion channel (Homo sapiens) (UniProt P14867+P47870+P18507+P28472+P48169+Q99928+Q9UN88+P34903+O00591+O14764+Q8N1C3+P18505+P78334+P47869+P31644+Q16445); experiment: Inhibition of GABAA receptor (unknown origin) at 50 uM by radioligand receptor binding assay relative to control; assay type: protein-complex assay
[6] = test system: Mus musculus; experiment: Anesthetic activity in mouse assessed as onset time; assay type: functional
[7] = test system: Mus musculus; experiment: Anesthetic activity in mouse assessed as time duration of loss of righting reflex; assay type: functional
[8] = test system: Mus musculus; experiment: Anesthetic activity in mouse assessed as time to walk at 2 times of HD50 concentration; assay type: functional
[9] = test system: Rattus norvegicus; experiment: Anesthetic activity in rat assessed as concentration required to induce hypnotic effect; assay type: functional, organism-based
[10] = Toxicity in rat assessed as lethal dose; conditions: in vivo
[11] = Therapeutic index, ratio of LD50 for toxicity in rat to HD50 for anesthetic activity in rat; conditions: read-out: TI
[12] = test system: Oryctolagus cuniculus; experiment: Anesthetic activity in rabbit assessed as concentration required to induce hypnotic effect; assay type: functional, organism-based
[13] = Toxicity in rabbit assessed as lethal dose; design: species or system Oryctolagus cuniculus; conditions: in vivo
[14] = Therapeutic index, ratio of LD50 for toxicity in rabbit to HD50 for anesthetic activity in rabbit; conditions: read-out: TI
[15] = test system: Rattus norvegicus; experiment: Anesthetic activity in rat assessed as onset time; assay type: functional
[16] = test system: Rattus norvegicus; experiment: Anesthetic activity in rat assessed as time duration of loss of righting reflex; assay type: functional
[17] = test system: Rattus norvegicus; experiment: Anesthetic activity in rat assessed as time to walk at 2 times of HD50 concentration; assay type: functional
[18] = test system: Oryctolagus cuniculus; experiment: Anesthetic activity in rabbit assessed as onset time; assay type: functional
[19] = test system: Oryctolagus cuniculus; experiment: Anesthetic activity in rabbit assessed as time duration of loss of righting reflex; assay type: functional
[20] = test system: Oryctolagus cuniculus; experiment: Anesthetic activity in rabbit assessed as time to walk at 2 times of HD50 concentration; assay type: functional

SMILES	logP [1]	HD50 (median hypnotic dose) [2] [mg/kg]	LD50 [3] [mg/kg]	selectivity ratio [4]	inhibition [5] [%]	Time [6] [s]	Time [7] [s]	Time [8] [s]	EC50 [9] [mg/kg]	LD50 [10] [mg/kg]	selectivity ratio [11]	EC50 [12] [mg/kg]	LD50 [13] [mg/kg]	selectivity ratio [14]	Time [15] [s]	Time [16] [s]	Time [17] [s]	Time [18] [s]	Time [19] [s]	Time [20] [s]
CCOC(=O)Cc1ccc(OCC(=O)N2CCN(c3cccc(Cl)c3Cl)CC2)c(OCC)c1	4.3	36.5	237	6.5	42.1															
CCOc1cc(CC(=O)OCC(F)(F)F)ccc1OCC(=O)N1CCN(c2cccc(C)c2C)CC1	4.7	35.6	227	6.4	32.1															
CCCOC(=O)Cc1ccc(OCC(=O)N2CCN(c3cccc(C)c3C)CC2)c(OCC)c1	4.6	42.5	269	6.3	45.5															
CCOc1cc(CC(=O)OC(C)C)ccc1OCC(=O)N1CCN(c2cccc(C)c2C)CC1	4.4	31.4	200	6.4	42.7															
CCCOC(=O)Cc1ccc(OCC(=O)N(CC)CC)c(OC)c1 [PROPANIDID]	2.1			5.6	83.2	6.7	89.6	56.3	8.4	81	9.6	5.1	75.4	14.7	16.3	93.3	58.7	22.6	265.4	124.5
CCOC(=O)Cc1ccc(OCC(=O)N2CCN(c3cccc(C)c3C)CC2)c(OCC)c1	4.1	32.2	209	6.5	38.7															
CCCOC(=O)Cc1ccc(OCC(=O)N(CC)CC)c(OCC)c1 [AZD-3043]	2.5	17.6		6	70.2	5.6	63.8	46.7	7.9	79.8	10.1	4.6	77.3	16.8	12.4	74.2	38.4	19.8	221.6	89.6
CCCOC(=O)Cc1ccc(OCC(=O)N2CCN(c3cccc(C(F)(F)F)c3)CC2)c(OCC)c1	4.5	33.6	176	5.2	49.6															
CCOc1cc(CC(=O)OC(C)C)ccc1OCC(=O)N1CCN(c2cccc(Cl)c2Cl)CC1	4.6	39.5	254	6.4	35.9															
COc1cc(CC(=O)OCC(F)(F)F)ccc1OCC(=O)N1CCN(c2cccc(Cl)c2Cl)CC1	4.6	34.5	225	6.5	39.4															
